The text below walks through data of patent publication US7166612B2, “Methods for reducing platelet activation platelet aggregaton or thrombosis” (Beth Israel Deaconess Medical Center, priority 2001, dated 2007).

SMILES strings stand for the structures. pIC50: −log10 of the molar value.

The test system of one experiment is platelet GPIIbIIIa. Put plainly: SFLLR-induced GPIIbIIIa activation (PAC-1 antibody, flow cytometry). Format: cell-based, human. Particulars: in words. The procedure:
In order to assay platelet activation by cell surface marker expression, fresh PRP is isolated from donors who have not ingested aspirin for two weeks prior to donation. PRP (40 μl) is incubated with known or suspected inhibitor in DMSO or DMSO alone for 15 min. The sample is then incubated with the indicated agonist (e.g., SFLLR) for 10 min. Following incubation of the sample with the indicated agonist, 10 μl of reaction mixture is transferred to 5 μl of phycoerythrin (PE)-conjugated AC 1.2 anti-P-selectin antibody (for assessment of P-selectin surface expression) or fluorescein isothiocyanate (FITC)-conjugated PAC-1 antibody (for assessment of GPIIbIIIa activation). PBS (500 μl) is added to the sample after a 20 min incubation and the platelets are analyzed immediately by flow cytometry. […] A 530/30 band pass filter is used for FL-1 fluorescence. A 585/42 band pass filter is used for FL-2 fluorescence. FITC is measured in the FL-1 channel and PE is measured in the FL-2 channel. Data are analyzed using, for example, CellQuest software on a Macintosh PowerPC, or their equivalents.
Compounds were also tested by flow cytometry for the inhibition of SFLLR-induced GPIIbIIIa activation and P-selectin expression. […] PBS (500 μl) was added to the sample after a 20 min incubation and the platelets were analyzed immediately by flow cytometry. […] A 530/30 band pass filter was used for FL-1 fluorescence. […]

In a further experiment the target is T1, human platelet PDE3 (Homo sapiens, UniProt Q14432).
T1 construct: from tissue; host or cells: human platelets
Kind of experiment: phosphodiesterase inhibition, PDE3. Format: biochemical. The procedure: (§1) Intracellular cAMP generated by adenylyl cyclase in platelets is actively hydrolyzed by phosphodiesterase. […] Human platelets express PDE2, PDE3, and PDE5. Therefore, the compound was tested for its inhibitory effect on these phosphodiesterases using methods as described in Example 3.

The next experiment has as its target recombinant human PDE2 (Homo sapiens, UniProt O00408). Put plainly: phosphodiesterase inhibition, PDE2. Format: biochemical. Conditions: up to 1 μM, in words. The procedure: as §1

Chain of recombinant human PDE2 (O00408 whole entry): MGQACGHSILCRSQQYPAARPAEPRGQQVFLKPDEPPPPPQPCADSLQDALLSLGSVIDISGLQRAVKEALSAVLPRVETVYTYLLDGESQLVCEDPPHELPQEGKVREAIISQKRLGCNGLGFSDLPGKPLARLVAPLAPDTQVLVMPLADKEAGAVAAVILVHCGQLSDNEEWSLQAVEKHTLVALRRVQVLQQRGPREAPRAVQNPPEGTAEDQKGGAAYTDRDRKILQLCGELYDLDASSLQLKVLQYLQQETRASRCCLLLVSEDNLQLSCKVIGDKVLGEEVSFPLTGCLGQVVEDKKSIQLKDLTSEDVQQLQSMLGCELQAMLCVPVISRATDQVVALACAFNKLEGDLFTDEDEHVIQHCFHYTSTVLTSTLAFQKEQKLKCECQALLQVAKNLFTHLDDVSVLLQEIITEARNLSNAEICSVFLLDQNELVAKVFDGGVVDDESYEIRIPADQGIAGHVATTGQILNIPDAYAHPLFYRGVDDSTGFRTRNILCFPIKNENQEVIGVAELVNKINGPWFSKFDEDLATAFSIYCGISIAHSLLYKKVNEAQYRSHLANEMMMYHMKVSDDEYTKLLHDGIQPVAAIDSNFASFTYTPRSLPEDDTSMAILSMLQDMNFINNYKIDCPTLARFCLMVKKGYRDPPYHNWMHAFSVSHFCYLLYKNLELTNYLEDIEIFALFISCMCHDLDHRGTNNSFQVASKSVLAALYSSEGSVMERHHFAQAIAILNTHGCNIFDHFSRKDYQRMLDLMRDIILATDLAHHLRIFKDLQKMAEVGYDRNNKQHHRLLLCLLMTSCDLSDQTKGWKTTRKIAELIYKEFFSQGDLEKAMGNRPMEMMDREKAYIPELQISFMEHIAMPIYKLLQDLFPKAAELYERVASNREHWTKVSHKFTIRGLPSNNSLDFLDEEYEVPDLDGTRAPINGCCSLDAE
T1 sequence (Q14432 whole entry): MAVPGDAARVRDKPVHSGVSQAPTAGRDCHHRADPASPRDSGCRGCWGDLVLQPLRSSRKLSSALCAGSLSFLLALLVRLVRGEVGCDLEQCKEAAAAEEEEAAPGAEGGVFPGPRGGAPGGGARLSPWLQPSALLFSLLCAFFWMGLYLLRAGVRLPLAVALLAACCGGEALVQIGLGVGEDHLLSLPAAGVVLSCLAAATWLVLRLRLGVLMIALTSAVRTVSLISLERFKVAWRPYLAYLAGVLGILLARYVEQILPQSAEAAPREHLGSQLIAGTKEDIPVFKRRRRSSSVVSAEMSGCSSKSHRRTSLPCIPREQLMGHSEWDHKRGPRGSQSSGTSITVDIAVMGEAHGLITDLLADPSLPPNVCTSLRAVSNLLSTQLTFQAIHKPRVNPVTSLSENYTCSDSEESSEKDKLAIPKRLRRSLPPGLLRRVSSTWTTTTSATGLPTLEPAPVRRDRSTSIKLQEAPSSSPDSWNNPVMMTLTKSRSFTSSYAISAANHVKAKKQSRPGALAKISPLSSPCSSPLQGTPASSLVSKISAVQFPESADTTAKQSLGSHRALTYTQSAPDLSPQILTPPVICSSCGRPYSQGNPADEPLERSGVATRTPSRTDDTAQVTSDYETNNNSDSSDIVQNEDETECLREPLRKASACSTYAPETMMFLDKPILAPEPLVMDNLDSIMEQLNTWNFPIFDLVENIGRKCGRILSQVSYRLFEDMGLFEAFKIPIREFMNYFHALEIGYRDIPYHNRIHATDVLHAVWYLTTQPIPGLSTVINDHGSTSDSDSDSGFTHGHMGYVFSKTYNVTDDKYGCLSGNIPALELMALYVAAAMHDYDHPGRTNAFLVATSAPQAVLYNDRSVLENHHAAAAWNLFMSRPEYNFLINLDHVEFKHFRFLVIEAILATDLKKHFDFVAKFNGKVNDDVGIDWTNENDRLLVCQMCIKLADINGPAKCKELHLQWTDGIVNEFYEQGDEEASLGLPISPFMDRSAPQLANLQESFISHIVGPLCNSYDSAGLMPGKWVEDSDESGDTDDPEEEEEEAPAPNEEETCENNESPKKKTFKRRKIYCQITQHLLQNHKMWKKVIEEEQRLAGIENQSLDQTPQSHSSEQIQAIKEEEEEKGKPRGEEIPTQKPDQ

One may read the pIC50 as −log10 of the IC50, conventionally taken in molar units. A lower pIC50 goes with a high IC50. Take `CC1CC(=O)NN=C1c1ccc(N)c([N+](=O)[O-])c1` (stereo not shown) [6-(4-Amino-3-nitro-phenyl)-5-methyl-4,5-dihydro-2H-pyridazin-3-one]: the “SFLLR-induced αIIbβ3 activation measured using PAC-1 antibodies” value with platelet GPIIbIIIa was “inhibited”. This compound also gave a pIC50 against human platelet PDE3 of 7.82. Moreover, the “inhibition of recombinant human PDE2” value at recombinant human PDE2 (listed as Pyridazinone compound) is on record as “No significant inhibition”; on recombinant human PDE2 (listed as pyridazinone compound), “little inhibition”.
